Source: patent publication US10538561B2, “Peptide for treating inflammatory diseases” (priority 2015, dated 2020)
Where a name gives a salt, the structure may show the parent alone. Marks after values point to notes of the source that are not given here.

Experiments:
[1] = system: IL-6; assay: LPS+PMA stimulated IL-6 secretion in HaCaT; type: cell-based, Human
Description: (§1) Effect on pro-inflammatory cytokines against TNF-α/LPS+PMA stimulation: TNF-α; IFN-γ; TARC; TSLP; IL-6; IL-8: Cell lines: Human keratinocytes (HaCaT); test item (TI); IS181; experimental steps: pre-treatment of cells with TI for 2 hours; stimulation with TNF-α: 20 ng/ml; stimulation with LPS+PMA-10 μg/ml LPS+40 ng/ml PMA; supernatant collection for cytokine analysis after 24 hours; concentration range: 0.1 μg/ml-100 μg/ml (duplicate wells); cytokines: TNF-α; IFN-γ; TARC; TSLP; IL-6; IL-8. Method of estimating cytokines: ELISA; positive control: dexamethasone.
(§2) Cell line: HaCaT (Human Keratinocytes); TI Treatment regimen: Pretreatment for 2 h; TI Concentration range: 0.1 μg/ml-100 μg/ml (duplicate wells); TNF-α stimulation: 20 ng/ml; LPS+PMA stimulation: 10 μg/ml LPS+40 ng/ml PMA; Time point for supernatants collection: 24 h; Method of estimation: ELISA; Positive control: Dexamethasone

[2] = system: IL-8; assay: LPS+PMA stimulated IL-8 secretion in HaCaT; type: cell-based, Human; settings: HaCaT + LPS + PMA
Description: as §1, §2

[3] = system: TARC; assay: TNF-α stimulated TARC secretion in HaCaT; type: cell-based, Human; settings: HaCaT + TNF-α
Description: as §1, §2

[4] = system: IFN-γ; assay: TNF-α stimulated IFN-γ secretion in HaCaT; type: cell-based, Human; settings: HaCaT + TNF-α
Description: as §1, §2

[5] = system: TNF-α; assay: LPS stimulated TNF-α secretion in RAW264.7; type: cell-based, Mouse; settings: RAW264.7 + LPS
Description: (§3) Effect on pro-inflammatory cytokines against LPS stimulation: TNF-α; IL-6; IL-1-β: Cell lines: Murine macrophage cell line (RAW264.7); test item: IS181; experimental steps: pretreatment of cells with TI for 2 hours; stimulation with LPS (100 ng/ml) for 24 hours; supernatant collection for cytokine analysis; concentration range: o.1 μg/ml-500 μg/ml (duplicate wells); Cytokines: TNF-α; IL-6; IL-1-β; Method of estimating cytokines: ELISA; positive control: dexamethasone.
(§4) Cell line: RAW264.7 (Mouse macrophages); TI treatment regimen: Pretreatment for 2 h; TI Concentration range: 0.1 μg/ml-500 μg/ml (duplicate wells); LPS stimulation: 100 ng/ml; Time point for supernatants collection: 24 h; Method of estimation: ELISA; Positive control: Dexamethasone

[6] = system: TSLP; assay: LPS+PMA stimulated TSLP secretion in HaCaT; type: cell-based, Human; settings: HaCaT + LPS + PMA
Description: as §1, §2

[7] = system: TNF-α; assay: TNF-α level in TNF-α stimulated HaCaT; type: cell-based, Human
Description: as §1, §2

[8] = system: IL-6; assay: LPS stimulated IL-6 secretion in RAW264.7; type: cell-based, Mouse; settings: RAW264.7 + LPS
Description: as §3, §4

[9] = system: IL-1-β; assay: LPS stimulated IL-1-β secretion in RAW264.7; type: cell-based, Mouse; settings: RAW264.7 + LPS
Description: as §3, §4

[10] = system: Human melanoma (SK-MEL-28); assay: Cell viability (MTT assay) in SK-MEL-28; type: cell-based; settings: human
Description: (§5) Cell Lines/Cells: Human Keratinocytes (HaCaT); Human melanoma (SK-MEL-28); Human PBMCs. Test Item: IS181 Treatment regimen: Single addition—24 h, ^#Multiple additions (3)−72 h; Concentration range: 1 ng/ml-2 mg/ml (triplicate wells); Sera Condition: […] Method of estimation: MTT assay. […] Positive control: Triton-X-100, Doxorubicin Hydrochloride.

[11] = system: HaCaT (Human keratinocyte) cell line; assay: Mitochondrial membrane potential by JC-1 assay; type: cell-based
Description: (§6) For testing Apoptosis the Human Keratinocytes (HaCaT) cell line has been employed. The growth conditions are DMEM containing 1% FBS. […] Test concentration range is IS181 is tested at the highest (Qualitative analysis) effective concentrations selected on the basis of Quantitative JC-1 assay. The method of estimation is Mitochondrial membrane depolarization by JC-1 assay (Early apoptosis), LDH enzyme release (Necrosis). Treatment regimen & time points are JC-1 assay—Single addition, 20 h; LDH assay—Single addition, 24 h; Positive control: Triton-X-100, Doxorubicin-hydrochloride
Quantitative effect on Δψm (Red fluorescence/Green fluorescence) in HaCaT cells post 20 hours of treatment. […] Evaluation (Qualitative and quantitative) of differential JC-1 staining in treated cells after 20 h on incubation with the test peptides.

[12] = system: Human Keratinocytes (HaCaT); assay: Cell viability (MTT assay) in HaCaT; type: cell-based; settings: human
Description: as §5

[13] = system: HaCaT (Human keratinocyte); assay: LDH enzyme release assay; type: cell-based
Description: as §6
End-point: Percentage increase in LDH activity in treated cells with respect to untreated.

[14] = system: VEGF; assay: VEGF inhibition in keratinocytes (ELISA); type: cell-based, Human; settings: HaCaT, 24 h
Description: Cell lines: Human Keratinocytes (HaCaT); test item: IS181; treatment regimen: single addition—24 hours; concentration range: 0.1 μg/ml-100 μg/ml. […] Cells were serum-starved for another 24 hours (0% FBS). Cells were treated with IS181 for 24 hours. Supernatants were collected and stored at −20° C. till analysed. Levels of VEGF were analysed in supernatants by ELISA. Percent inhibition of VEGF secretion was calculated with reference to untreated levels. Positive control: curcumin; retinoic acid (at non-cytotoxic concentrations).

With `C[C@@H]1C[C@H]2[C@@H]3CCC4=CC(=O)C=C[C@]4(C)[C@@]3(F)[C@@H](O)C[C@]2(C)[C@@]1(O)C(=O)CO` [Dexamethasone, reference compound] the “IL-6 % decrease with respect to LPS + PMA” value ([1]; 1 μM) was 100.0%, the “IL-6 Conc (pg/ml)” value ([1]; 1 μM) was 0.0*** pg/ml and the “IL-6 % decrease with respect to LPS + PMA” value ([1]; 10 μM) was 94.8%. For the same compound, the “IL-6 Conc (pg/ml)” value ([1]; 10 μM) was 0.8*** pg/ml, the “IL-6 % decrease with respect to LPS + PMA” value ([1]; 25 μM) was 84.2% and the “IL-6 Conc (pg/ml)” value ([1]; 25 μM) was 2.4*** pg/ml. For the same compound, the “IL-8 % decrease with respect to LPS + PMA” value (shortened to “IL-8 % decrease”) ([2]; 1 μM) was 65.1%, the “IL-8 Conc (pg/ml)” value ([2]; 1 μM) was 136.9*** pg/ml and the “IL-8 % decrease” value ([2]; 10 μM) was 72.6%. For the same compound, the “IL-8 Conc (pg/ml)” value ([2]; 10 μM) was 107.4*** pg/ml, the “IL-8 % decrease” value ([2]; 25 μM) was 67.9% and the “IL-8 Conc (pg/ml)” value ([2]; 25 μM) was 125.7*** pg/ml. For the same compound, the “TARC % decrease with respect to TNF-α” value ([3]; 1 μM) was 13.2%, the “TARC Conc” value ([3]; 1 μM) was 52.5 pg/mL and the “TARC % decrease with respect to TNF-α” value ([3]; 10 μM) was 13.5%. The “TARC Conc” value ([3]; 10 μM) was 52.3 pg/mL, the “TARC % decrease with respect to TNF-α” value ([3]; 25 μM) was 13.5% and the “TARC Conc” value ([3]; 25 μM) was 52.3 pg/mL. For the same compound, the “IFN-γ % decrease with respect to TNF-α” value ([4]; 1 μM) was 34.5%, the “IFN-γ Conc (pg/ml)” value ([4]; 1 μM) was 31.2*** pg/ml and the “IFN-γ % decrease with respect to TNF-α” value ([4]; 10 μM) was 25.4%. The “IFN-γ Conc (pg/ml)” value ([4]; 10 μM) was 35.5** pg/ml, the “IFN-γ % decrease with respect to TNF-α” value ([4]; 25 μM) was 31.2% and the “IFN-γ Conc (pg/ml)” value ([4]; 25 μM) was 32.8** pg/ml. For the same compound, the “TNF-α % decrease with respect to LPS” value ([5]; 0.5 μg /ml) was 54.1%, the “TNF-α Conc (pg/ml)” value ([5]; 0.5 μg /ml) was 451.7*** pg/ml and the “TNF-α % decrease with respect to LPS” value ([5]; 1 μg /ml) was 70.4%. For the same compound, the “TNF-α Conc (pg/ml)” value ([5]; 1 μg /ml) was 291.8*** pg/ml, the “TNF-α % decrease with respect to LPS” value ([5]; 10 μg/ml) was 71.2% and the “TNF-α Conc (pg/ml)” value ([5]; 10 μg/ml) was 283.1*** pg/ml. The “TSLP % decrease with respect to LPS + PMA” value (“TSLP % decrease” for short) ([6]; 1 μM) was 46.4%, the “TSLP Conc (pg/ml)” value ([6]; 1 μM) was 66.6** pg/ml and the “TSLP % decrease” value ([6]; 10 μM) was 41.9%. The “TSLP Conc (pg/ml)” value ([6]; 10 μM) was 72.1** pg/ml, the “TSLP % decrease” value ([6]; 25 μM) was 44.7% and the “TSLP Conc (pg/ml)” value ([6]; 25 μM) was 68.7** pg/ml. For the same compound, the “TNF-α % decrease with respect to TNF-α” value ([7]; 1 μM) was 17.6%, the “TNF-α Conc” value ([7]; 1 μM) was 17423.9 pg/mL and the “TNF-α % decrease with respect to TNF-α” value ([7]; 10 μM) was 31.2%. The “TNF-α Conc” value ([7]; 10 μM) was 14536.0 pg/mL, the “TNF-α % decrease with respect to TNF-α” value ([7]; 25 μM) was 4.7% and the “TNF-α Conc” value ([7]; 25 μM) was 20138.0 pg/mL. The “IL-6 % decrease with respect to LPS” value ([8]; 0.5 μg /ml) was 45.9%, the “IL-6 Conc (pg/ml)” value ([8]; 0.5 μg /ml) was 567.6** pg/ml and the “IL-6 % decrease with respect to LPS” value ([8]; 1 μg /ml) was 61.3%. The “IL-6 Conc (pg/ml)” value ([8]; 1 μg /ml) was 405.9*** pg/ml, the “IL-6 % decrease with respect to LPS” value ([8]; 10 μg/ml) was 72.3% and the “IL-6 Conc (pg/ml)” value ([8]; 10 μg/ml) was 291.2*** pg/ml. For the same compound, the “IL-1-β % decrease with respect to LPS” value ([9]; 0.5 μg /ml) was 53.6%, the “IL-1-β Conc (pg/ml)” value ([9]; 0.5 μg /ml) was 9.6* pg/ml and the “IL-1-β % decrease with respect to LPS” value ([9]; 1 μg /ml) was 44.6%. The “IL-1-β Conc (pg/ml)” value ([9]; 1 μg /ml) was 11.4* pg/ml, the “IL-1-β % decrease with respect to LPS” value ([9]; 10 μg/ml) was 39.0% and the “IL-1-β Conc (pg/ml)” value ([9]; 10 μg/ml) was 12.6* pg/ml.
In the case of `COc1cccc2c1C(=O)c1c(O)c3c(c(O)c1C2=O)C[C@@](O)(C(=O)CO)C[C@@H]3O[C@H]1C[C@H](N)[C@H](O)[C@H](C)O1` [Doxorubicin, Doxorubicin Hydrochloride, reference compound], the cytotoxicity [10] is reported as “up to 40%”, the “Green fluorescence intensity (RFU)” value ([11]; 0.1 μM) is reported as 11.5 ± 0.71 RFU and the “Red fluorescence intensity (RFU)” value ([11]; 0.1 μM) is reported as “^#106.17 ± 15.32 ^ RFU”. For the same compound, the “Red fluorescence intensity/Green fluorescence intensity” value ([11]; 0.1 μM) was 9.23, the “Green fluorescence intensity (RFU)” value ([11]; 1 μM) was 11.5 ± 0.71 RFU and the “Red fluorescence intensity (RFU)” value ([11]; 1 μM) was 93.25 ± 22.98 RFU. The “Red fluorescence intensity/Green fluorescence intensity” value ([11]; 1 μM) was 8.11, the “Green fluorescence intensity (RFU)” value ([11]; 10 μM) was 9.83 ± 4.48 RFU and the “Red fluorescence intensity (RFU)” value ([11]; 10 μM) was 49.83 ± 1.65 RFU. For the same compound, the “Red fluorescence intensity/Green fluorescence intensity” value ([11]; 10 μM) was 5.07, the cytotoxicity ([12]; 24 h) was “up to 48%” and the cytotoxicity ([12]; 72 h) was > 88%. The “% Increase with respect to untreated (LDH)” value (“% Increase” below) ([13]; 0.1 μM) was −4.78%, the “LDH Activity (mU/ml)” value ([13]; 0.1 μM) was 60.23 mU/ml and the “% Increase” value ([13]; 1 μM) was −16.43%. For the same compound, the “LDH Activity (mU/ml)” value ([13]; 1 μM) was 52.87 mU/ml, the “% Increase” value ([13]; 10 μM) was “***125.92%” and the “LDH Activity (mU/ml)” value ([13]; 10 μM) was 142.92 mU/ml.
With `CC1=C(/C=C/C(C)=C/C=C/C(C)=C/C(=O)O)C(C)(C)CCC1` [RA, retinoic acid, reference compound] the “Conc. of VEGF (pg/ml)” value ([14]; RA 1 μM) was 2775.1* pg/ml, the “Conc. of VEGF” value ([14]; RA 10 μM) was 2982.4 pg/mL and the inhibition at 1 µM ([14]; Homo sapiens, RA 1 μM, read-out: % Inhibition of VEGF wrt untreated (basal) levels) was 22.8%. For the same compound, the inhibition at 10 µM ([14]; Homo sapiens, RA 10 μM, read-out: % Inhibition of VEGF wrt untreated (basal) levels) was 17%.
